In patent US7618953B2, “Amorphous forms of risedronate monosodium” (Zentiva, a.s., priority 2004, dated 2009):
Where a name gives a salt, the structure may show the parent alone.

Columns and labels:
[1] = 0.200 g suspended in 2 ml water at 22° C., water added dropwise at 0.2 ml/min until transparent solution
[2] = Water content after storage on the open air; assay type: physicochemical; conditions: after one month storage on the open air at laboratory temperature; 1.7% of water when prepared
Method: 10 g of crystalline form of risedronate pentahydrate (according to WO 2004/037252) was dried at 110° C. for 20 hours. 8.2 g of the semi-crystalline form of risedronate sodium was obtained, which was characterized with X-ray powder diffraction (FIG. 9), ^13C and ^31P Cp MAS NMR spectra (FIGS. 7 and 8) and IR spectra (FIG. 6). Thus prepared semi-crystalline risedronate contained 1.7% of water. After one month storage on the open air at laboratory temperature the content of water increased to 3%.

physchem = conditions: 22 °C, water, thermodynamic from solid
[3] = assay type: physicochemical; conditions: for time until a transparent solution was formed: 0.796 mmol in 100 ml stirred aqueous hydrochloric acid, pH 1.1, 40° C.
Method: Dissolution of Sodium Risedronate in Diluted Hydrochloric Acid
a) 0.273 g (0.796 mmol) of sodium risedronate pentahemihydrate (crystalline form A) according to WO 01/56983, having the water content 12.5%, was introduced into 100 ml of stirred aqueous solution of hydrochloric acid at pH 1.1 and temperature of 40° C. Within 30 seconds a transparent solution was formed.
b) 0.250 g (0,796 mmol) of semi-crystalline sodium risedronate according to Example 2 above, having the water content 3%, was introduced into 100 ml of stirred aqueous solution of hydrochloric acid at pH 1.1 and temperature of 40° C. Within less than 30 seconds a quite transparent solution was formed.

For `O=P(O)(O)C(O)(Cc1cccnc1)P(=O)(O)O` [Example 2, monosodium salt of 3-pyridyl-1-hydroxyethylidene-1,1-bisphosphonic acid], the “total consumption of water for dissolution of the sample” value [1] was 2.5 mL, the “content of water after storage” value [2] was 3% and the solubility (physchem) was 255 mM. For the same molecule, the “time until a transparent solution was formed” value [3] was “less than 30 seconds” and the “precipitation on further stirring under constant conditions” value ([3]; aqueous hydrochloric acid pH 1.1, 40° C., stirred for further 15 mins) was “without any observable precipitation”.

For `O.O.O.O.O.O=P([O-])(O)C(O)(Cc1cccnc1)P(=O)(O)O.O=P([O-])(O)C(O)(Cc1cccnc1)P(=O)(O)O.[Na+].[Na+]` [sodium risedronate pentahemihydrate, reference compound], the “total consumption of water for dissolution of the sample” value [1] was 3.5 mL, the “time until a transparent solution was formed” value [3] was no more than 30 s and the “time after formation of the transparent solution until a white suspension of poorly soluble risedronic acid started to precipitate” value ([3]; pH 1.1) was no more than 20 s.
